Assay results as given in a melting point compilation (Tetko et al.; mined from patent text by program, amines drawn as free bases though some values may be those of a salt).

Row | SMILES | melting point [°C]
1 | c1ccc(N2CCN3C(NN4CCOCC4)=Nc4ccccc4N3CC2)cc1 | 142 to 144
2 | O=C(O)c1ccc(C(=O)/C=C/c2ccc(-c3cncnc3)cc2)cc1 | > 260
3 | CN1CCN(CC2CCCCN2CC(=O)N2c3ccccc3C(=O)Nc3cccnc32)CC1 (stereo not drawn) | 203 to 205
4 | COc1ccc(Oc2cccc(Oc3ccc4c(c3)OCO4)c2C(=O)O)cc1 | 163 to 165
5 | Nc1c([N+](=O)[O-])sc2cccc(Cl)c12 | 174 to 175
6 | O=C(O)c1sccc1C(F)F | 119 to 120
7 | C[C@H](Nc1nc(Nc2cccc(NS(C)(=O)=O)c2)nc2[nH]cnc12)c1ccccc1 | 136 to 139
8 | COc1ccc2c3c1OC1C(=O)CCC4(OC)C(C2)N(C)CCC314 (stereo not drawn) | 140 to 142
9 | CCCC1=NN(c2ccc([N+](=O)[O-])cc2)C(=O)C1=CNc1ccccc1CC | 211
10 | COC(=O)C[C@@H](N)c1ccc(NC(=O)Cc2ccc(NC(=O)Nc3ccccc3C)c(OC)c2)cc1 | 189 to 191
11 | CC(=NC(C#N)=C(N)C#N)c1cccs1 | 177 to 179
12 | CCN(CC)c1ccc(CNc2cc(C(=O)Nc3ccccc3)ccc2OC)cc1 | 180 to 181
13 | Cc1cc(Cc2ccccc2)c(NS(=O)(=O)Cc2ccccc2)c(=O)n1CC(=O)O | > 200
14 | Fc1ccc(-c2ncc(Br)cn2)cc1 | 156
15 | CCC(c1oc2ccccc2c(=O)c1-c1cccc(F)c1)n1nc(-c2ccc3c(C)n[nH]c3c2)c2c(N)ncnc21 (stereo not drawn) | 268 to 270
16 | C=C(c1cn(-c2c(Cl)cc(C(F)(F)F)cc2Cl)nc1C#N)C(F)(F)C(F)(F)C(F)(F)F | 109 to 110
17 | CSc1nnc(-c2ccc(F)cc2)c(-c2ccc(F)cc2)n1 | 132 to 135
18 | CC(CNC12CC3CC(CC(C3)C1)C2)N1CCN(c2ccccn2)CC1 (stereo not drawn) | 67 to 68
19 | CCCCNS(=O)(=O)CC(O)C(O)C(CC1CCCCC1)NC(=O)CCC(C)C (stereo not drawn) | 88 to 92
20 | CS(=O)(=O)OC(c1ccc(C(OS(C)(=O)=O)(C(F)(F)F)C(F)(F)F)cc1)(C(F)(F)F)C(F)(F)F | 151
21 | CNCC(O)c1ccc(Cl)cc1 (stereo not drawn) | 84 to 86
22 | CN(C)c1ccc(NC(=O)N(C[C@@H]2CCC[C@H](CN(C(=O)Nc3ccc(N(C)C)cc3)C3CCCCCCC3)C2)C2CCCCCCC2)cc1 | 147 to 149
23 | CC(=O)c1ccc(N(C(C)=O)c2ccccc2)cc1 | 118 to 120
24 | CN[C@@H]1COc2ccc(Cl)c(-c3ccccc3Cl)c2O1 | 105
25 | COc1ccc(CC(C)(C)NC(=O)N(C)O)cc1OC | 77 to 78

Row | SMILES | melting point [°C]
26 | CCCC(=O)C(=CNc1ccccc1COC(=O)c1ccccc1)C(=O)OCC | 78 to 82
27 | O=C1c2ccccc2C(=O)N1OCCc1cn(C(c2ccccc2)(c2ccccc2)c2ccccc2)cn1 | 177
28 | COC(=S)c1ccc2ccc(C(=O)N(C)C)cc2c1 | 123 to 124
29 | O=C(NCc1ccccc1)OCC(=O)c1ccccc1 | 110 to 112
30 | O=C(C=P(c1ccccc1)(c1ccccc1)c1ccccc1)CCCc1ccccc1 | 93 to 95
31 | O=C(O)c1cccnc1C1=NC(=O)C2(CCCCC2)N1 | 186 to 189
32 | COc1cccc(C=O)c1OS(=O)(=O)c1ccccc1 | 120 to 122
33 | O=C(NCCc1cccc2ccc(OC3C=CCCC3)cc12)C1CCC1 (stereo not drawn) | 104 to 106
34 | Cn1ccc2c1CCn1ncnc1C2=C1CCNCC1 | 183
35 | CCCCCCCCCCCCC1=C(Br)C(=O)c2ccccc2C1=O | 98 to 100
36 | CN1c2cscc2CNc2ccccc21 | 125 to 127
37 | COc1ccc(C=CC(=O)Nc2ccc(C(C)(C)C)cc2)cc1 | 158 to 160
38 | S=C1NCC2c3ccccc3Cc3ccccc3N12 (stereo not drawn) | 222 to 224
39 | NS(=O)(=O)c1cc(C(=O)O)cc(NCc2ccccc2)c1Oc1ccccc1 | 264 to 265
40 | COc1ccc(CC(=O)c2ccccc2)cc1 | 87 to 92
41 | CC1(C)Oc2ccc(C#N)cc2[C@@H](NC(=O)C2=C(c3ccccc3)CCC2)[C@@H]1O | 156 to 158
42 | Cc1ccc(S(=O)(=O)N2CC[C@@H](C)[C@@H]2c2ccc(F)cc2)cc1 (racemic) | 112
43 | CC(=O)Nc1ncc(C=O)s1 | 235 to 236
44 | CSc1c(Cl)c(O)nn1C | 163 to 165
45 | COc1cc(Cl)c(C(=O)c2c(C)ccc(OC)c2OC(=O)Cc2ccccc2)c(Cl)c1 | 106
46 | OC(c1ccccc1)c1ccccc1CNC(=S)NCCc1ccccc1 (stereo not drawn) | 117 to 119
47 | CC(=O)Cc1nc(CN2CCCCC2)no1 | 66 to 67
48 | CN(C)C1CCN(c2nc(NCc3ccccc3)c3ncnc(NCc4ccccc4)c3n2)CC1 | 143 to 145
49 | O=C(N[C@H]1CC[C@H](CCN2CCN(c3nccc4c3OCC4)CC2)CC1)c1ccc(N2CCCCC2)cc1 | 182

Second part, the compound after the results:

Row | melting point [°C] | SMILES
50 | 160 to 163 | CCOC(=O)Cc1ccc(NC(=O)Nc2ccccc2Br)c(OC)n1
51 | 90 | CC(=O)OCCOCCN1CCC(CNC(=O)[C@@H]2CCCN2S(=O)(=O)c2ccc(Cl)c(COc3cccc4c(-n5ccnc5)cc(C)nc34)c2Cl)CC1
52 | 120 | CCN1CCCc2cc(C(=O)c3ccc4c(c3)CCCN4CC)ccc21
53 | 209 to 210 | Cc1c(C)c2c(c(C)c1NC(=O)CC(C)(C)C)C(c1ccc(C(C)C)cc1)C1(CCCC1)O2 (stereo not drawn)
54 | 157 to 158 | COc1ccc(/C=C/c2c(Cl)cncc2Cl)c2cc(-c3ccccn3)oc12
55 | 159 to 160 | COc1ccc(-n2nnc(-c3ccc(Cl)cc3C(F)(F)F)c2N)cc1
56 | 117 to 118 | COC(=O)c1cc2cccc(OCc3cccnc3)c2o1
57 | 126 to 129 | CCOC(=O)C=C(c1ccccc1)c1cc([N+](=O)[O-])ccc1NS(=O)(=O)c1ccc(OC)cc1
58 | 184 to 186 | COc1ccccc1Nc1nc2c(-c3ccc(C(F)(F)F)cc3)cccn2n1
59 | 117 | CC(=O)OC1CSC(Oc2cccc(-c3ccnc(F)c3)c2)C(OC(C)=O)C1OC(C)=O (stereo not drawn)
60 | 77 to 80 | COC(=O)Cc1ccc(OCCN)c(OC)c1
61 | 111 to 112 | O=C(O)CCC(O)c1ccc(-c2ccc(F)cc2F)cc1 (stereo not drawn)
62 | 261 to 263 | COc1ccc(-c2nc3cccc(C(N)=O)c3[nH]2)cc1
63 | 43 to 44 | Clc1ccc2onc(Cl)c2c1
64 | 69.8 to 70.5 | CCOC(=O)C(Cc1ccc(OCCc2nc(-c3ccccc3)oc2C)cc1)C(=O)OCC
65 | 169 to 171 | CC(=O)Oc1ccc(C(=O)O)cc1C
66 | 286 to 287 | Cc1oc2cc(O)ccc2c(=O)c1C(=O)O
67 | 94 to 95 | N#CCCNC(=S)C1=CC(CF)(CF)Oc2ccc(C(F)(F)C(F)(F)C(F)(F)F)cc21
68 | 247 to 248 | CC(C)Oc1ccc(C(=O)[NH+]([O-])c2c(Cl)cncc2Cl)c2c1oc1ccccc12 (stereo not drawn)
69 | 246 to 249 | COc1ccc(-c2ccnc3c(C(N)=O)ncn23)cc1
70 | 142 to 144 | Cn1c(C(F)(F)F)cc(=O)n(Cc2cc(I)cc(Cl)c2Cl)c1=O
71 | 190 to 191 | CCCOc1ccccc1-c1ncc(C(=O)NC)c(=O)[nH]1
72 | 168 | COc1ccc(-c2nc(-c3ccc(Cl)cc3)ncc2C(=O)N2CCOCC2)cc1OC
73 | 117 to 119 | C#CCOc1nc(C(F)(F)F)cc(=O)n1-c1cc(C(=O)OC(C)C)c(Cl)cc1F
74 | 119 to 121 | COc1cc(Nc2c(C#N)cnc3cc(/C=C/CCN(C)C)c(OC)cc23)c(Cl)cc1Cl

Row | melting point [°C] | SMILES
75 | 233 to 236 | CSc1ccc(-c2nc(SC)c(C#N)c(=O)n2-c2ccc(C(C)(C)C)cc2)cc1
76 | 176 to 179 | O=C(/C=C/c1ccc(C(F)(F)F)cc1)Nc1ccc2c(c1)NCC(CO)C2 (stereo not drawn)
77 | 291 | Cn1ncc2[nH]c3ccc(Cc4ccc(C#N)cc4)cc3c(=O)c21
78 | 203 to 204 | Cc1cc(C(=O)Nc2ccc(S(=O)(=O)C(F)(F)F)cc2Cl)c(O)c(C23CC4CC(CC(C4)C2)C3)c1
79 | 158 to 161 | CC(=O)NNc1ccnc2c(NC(=O)c3c(Cl)cccc3Cl)ccc(Cl)c12
80 | 118 to 119 | CC(=O)Oc1c(C)c2c(-c3ccc(C(C)C)cc3)coc2c2ccccc12
81 | 169 to 171 | Cc1cccc(C(=O)n2nc(Nc3cccc(OCC(=O)N4CCNCC4)c3)nc2N)c1
82 | 184 to 187 | CCCN(CCC)S(=O)(=O)c1cc(-c2csc(=Nc3cccc(C)c3C)n2C)ccc1Cl
83 | 180 to 182 | O=C1N(Cc2noc(C3CC3)n2)c2cccc(Cl)c2C12COc1cc3c(cc12)OCO3 (stereo not drawn)
84 | 293 to 295 | COc1ccc(Cl)cc1-c1c(N)c(=O)[nH]c2cc([N+](=O)[O-])ccc12
85 | 111 to 113 | CC1(C(=O)Nc2ccc(OCC3CC3)c(Cl)c2)CC1
86 | 204 to 206 | Cc1oc(-c2ccccc2)nc1CCOc1ccc(C[C@H](NC(=O)C=Cc2cccc(Cl)c2)C(=O)O)cc1
87 | 196 | O=C(c1ccc(I)cc1)c1ccc2noc(-c3cccc(Cl)c3)c2c1
88 | 257 to 259 | CC1(C)OC(=O)Nc2ccc(-c3ccc(N)nc3)cc21
89 | 212 to 214 | Cc1nc(NC(=O)c2ccc(Cl)c(Cl)c2)sc1C(=O)NCc1ccccc1
90 | 144 | C#CCOCc1c(C)nc2c(OCc3ccccc3C#N)cccn12
91 | 145 to 147 | Fc1cccc(-c2ccc3nnn(Cc4ccc5ncccc5c4)c3n2)c1
92 | 87 to 89 | COc1ccc(CCC(=O)CCC(Cc2ccc(OC)c(OC)c2)[N+](=O)[O-])cc1 (stereo not drawn)
93 | 264 to 265 | CCCOc1ccccc1C1=NC(=O)C2=NC(C)=NC2=N1
94 | 178 to 179 | CCOC(=O)C(=O)Nc1ccc(Cl)ccc1=O
95 | 88 to 90 | Cc1cc(S(=O)(=O)Nc2ccc(N)cc2)c2c(C)ccc(C(C)C)cc1-2
96 | 299 | COc1ccc(-c2[nH]nc3c2C(=O)c2c(NC(=O)Cc4ccc(Cl)c(Cl)c4)cccc2-3)cc1
97 | 158 to 160 | COC(=O)c1ccc(NC(=O)c2sc3ccc(OC)cc3c2OC(C)C)cc1O
98 | 169 to 170 | CC[C@@H]1O[C@](C#Cc2ccoc2)(C(F)(F)F)c2cc(Cl)ccc2NC1=O (relative stereo)
